“And” between values parts separate entries of the source, which are not always exact repeats. Identical values can stand only once.
Key:
CRBN = CRBN (Homo sapiens, UniProt Q96SW2); experiment: Western blot dose-response degradation in HEK293 cells; assay type: cell-based; parameters: Western blot data for BET, CRBN and VHL protein levels; endogenous in cells; host or cells: HEK293 (ATCC); conditions: for DC50: HEK293 cells, 6 h, Western blot, mean ± S.E.M. of three experiments, values marked b mean ± S.D. of two
Chain of CRBN (Q96SW2 whole entry): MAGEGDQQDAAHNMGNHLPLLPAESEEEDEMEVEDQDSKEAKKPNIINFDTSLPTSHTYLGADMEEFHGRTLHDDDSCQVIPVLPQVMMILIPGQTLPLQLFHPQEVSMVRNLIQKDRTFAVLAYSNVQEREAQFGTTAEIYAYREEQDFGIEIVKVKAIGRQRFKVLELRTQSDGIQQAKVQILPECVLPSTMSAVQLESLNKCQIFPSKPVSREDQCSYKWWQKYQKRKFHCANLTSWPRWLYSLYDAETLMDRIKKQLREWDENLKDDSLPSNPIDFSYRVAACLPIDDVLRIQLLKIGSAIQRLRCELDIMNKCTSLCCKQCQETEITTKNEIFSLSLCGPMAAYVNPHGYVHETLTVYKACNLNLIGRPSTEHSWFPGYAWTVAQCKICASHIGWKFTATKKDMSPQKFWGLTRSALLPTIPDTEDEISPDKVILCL
Experimental: (§1) HEK293 cells were obtained from ATCC. HEK293 was cultured in DMEM supplemented with 10% (v/v) fetal bovine serum (FBS), 1% […] and 1% (v/v) penicillin/streptomycin (pen/strep) at 37 °C, 5% CO2, and 95% humidity.
(§2) HEK293 cells were plated at a density of 5 × 10^5 cells per well of a six well plate a day prior to initiation of the experiment. Compounds were dissolved to a 10 mM concentrated stock solution in DMSO from which the compounds were further diluted to a working concentration range of 1 μM to 100 pM in DMEM and was subsequently added to cells at the initiation of the experiment. An additional vehicle control was added to cells alongside compound treatments. Cells were left to incubate with compound for 6 h at 37 °C, 5% CO2, and 95% humidity. Cells were then subsequently washed twice with PBS before being harvested in RIPA buffer supplemented with protease inhibitor cocktail and Benzonase Nuclease before being store at −20 °C.
(§3) Protein concentration was determined using the BCA assay. Samples were then prepared in LDS buffer containing 5% 1 M DTT and subsequently loaded onto NuPAGE 4–12% Bis-Tris Midi gels, followed by the transfer of the proteins onto nitrocellulose membranes. The membranes were blocked for 1 h prior to incubation with the primary antibodies using 5% Milk TBST. Membranes were incubated at 4 °C in either BRD4(Ab128874), BRD3(Ab50818), BRD2(Ab139690), VHL(CST#68547) and CRBN(CST#71810) primary antibody overnight. Following overnight incubation, the membranes were incubated with complementary IRDye 800CW secondary antibody and a hFAB Rhodamine Anti-Tubulin Primary Antibody (loading control) for 1 h and then imaged with a Bio-Rad imager. All Western blots were analyzed for band intensities using Image Lab (Bio-Rad). The data extracted from these blots were then plotted and analyzed using Prism (v. 10.2.2, GraphPad). Linear regression curve fitting was used to calculate pDC50 values. The standard deviation of the pDC50 was calculated for all compounds that had two independent repeats and the standard error of the mean calculated for all compounds that had three independent repeats. All Western blotting figures were developed in Adobe illustrator.

BRD3 [1] = target: T1, BRD3 (Homo sapiens, UniProt Q15059); experiment: Live cell kinetic HiBiT degradation assay, HiBiT-BRD3 HEK293 cells; assay type: cell-based; conditions: for DC50: live cell kinetic degradation, read-out: Dmax 50 BRD3
T1 construct: HiBiT, is appended to the N-terminus of endogenous BRD2, BRD3, and BRD4; endogenous in cells
T1 sequence (Q15059 whole entry): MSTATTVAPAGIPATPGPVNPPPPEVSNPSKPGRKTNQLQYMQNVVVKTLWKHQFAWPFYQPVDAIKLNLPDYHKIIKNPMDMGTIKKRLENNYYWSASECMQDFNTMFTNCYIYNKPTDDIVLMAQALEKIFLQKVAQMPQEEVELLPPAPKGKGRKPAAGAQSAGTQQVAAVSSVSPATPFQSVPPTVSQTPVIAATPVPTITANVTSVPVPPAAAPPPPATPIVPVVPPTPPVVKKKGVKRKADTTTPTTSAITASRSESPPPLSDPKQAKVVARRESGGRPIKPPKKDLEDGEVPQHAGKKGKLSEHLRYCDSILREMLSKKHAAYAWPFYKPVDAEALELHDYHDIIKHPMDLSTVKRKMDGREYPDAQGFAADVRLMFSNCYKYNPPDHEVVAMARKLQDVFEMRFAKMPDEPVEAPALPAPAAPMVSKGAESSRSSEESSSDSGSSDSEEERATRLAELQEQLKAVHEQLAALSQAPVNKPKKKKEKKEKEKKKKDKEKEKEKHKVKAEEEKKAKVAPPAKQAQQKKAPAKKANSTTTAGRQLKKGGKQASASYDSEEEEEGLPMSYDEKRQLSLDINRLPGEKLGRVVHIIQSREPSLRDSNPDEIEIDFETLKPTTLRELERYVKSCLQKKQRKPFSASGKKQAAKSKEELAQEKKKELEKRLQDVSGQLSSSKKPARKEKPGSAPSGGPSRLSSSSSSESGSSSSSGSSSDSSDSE
In short: (§4)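 HEK293 cells with CRISPR-inserted N-terminal HiBiT on endogenous BRD2 or BRD3, stably expressing LgBiT, equilibrated 3 h with Endurazine at 37 °C, then treated with threefold PROTAC dilution series. Luminescence read every 7 min for 24 h, normalized to pre-read and DMSO; Dmax as lowest signal, rate constant by one-phase exponential decay, Dmax50 from Dmax-concentration fit.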

BRD2 [2] = target: T2, BRD2 (Homo sapiens, UniProt P25440); experiment: Western blot dose-response degradation in HEK293 cells; assay type: cell-based; conditions: 6 h, mean ± S.E.M. of three experiments, values marked b mean ± S.D. of two
T2 construct: HiBiT, is appended to the N-terminus of endogenous BRD2, BRD3, and BRD4; endogenous in cells
T2 sequence (P25440 whole entry): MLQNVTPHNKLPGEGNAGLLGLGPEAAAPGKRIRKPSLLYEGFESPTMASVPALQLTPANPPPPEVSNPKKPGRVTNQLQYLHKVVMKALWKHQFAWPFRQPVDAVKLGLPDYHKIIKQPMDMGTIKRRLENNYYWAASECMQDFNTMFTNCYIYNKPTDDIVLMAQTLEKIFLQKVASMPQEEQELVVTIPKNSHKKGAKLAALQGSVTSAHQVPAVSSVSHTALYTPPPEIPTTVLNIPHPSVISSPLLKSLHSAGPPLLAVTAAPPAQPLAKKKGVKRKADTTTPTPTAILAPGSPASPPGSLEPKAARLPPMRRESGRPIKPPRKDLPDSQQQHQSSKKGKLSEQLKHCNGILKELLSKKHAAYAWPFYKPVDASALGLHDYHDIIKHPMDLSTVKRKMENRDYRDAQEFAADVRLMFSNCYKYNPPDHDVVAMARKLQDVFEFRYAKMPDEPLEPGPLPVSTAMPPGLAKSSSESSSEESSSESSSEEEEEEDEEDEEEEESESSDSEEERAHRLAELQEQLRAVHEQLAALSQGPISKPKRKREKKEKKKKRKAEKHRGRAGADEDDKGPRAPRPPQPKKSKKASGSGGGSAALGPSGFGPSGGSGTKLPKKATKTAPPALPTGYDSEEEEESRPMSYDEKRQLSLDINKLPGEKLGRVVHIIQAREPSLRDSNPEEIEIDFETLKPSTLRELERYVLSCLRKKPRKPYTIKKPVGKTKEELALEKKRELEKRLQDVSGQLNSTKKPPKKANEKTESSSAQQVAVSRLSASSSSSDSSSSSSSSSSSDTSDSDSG
Experimental: as §1, §2, §3

BRD4^Short = target: T3, BRD4^Short (Homo sapiens, UniProt O60885); experiment: as above; assay type: cell-based; conditions: 6 h, mean ± S.E.M. of three experiments, values marked b mean ± S.D. of two
T3 construct: Western blot data for BET, CRBN and VHL protein levels; endogenous in cells; host or cells: HEK293 (ATCC)
Experimental: as §1, §2, §3

BRD4^Long = target: T4, BRD4^Long (Homo sapiens, UniProt O60885); experiment: as above; assay type: cell-based; conditions: for DC50: HEK293 cells, 6 h, Western blot, mean ± S.E.M. of three experiments, values marked b mean ± S.D. of two
T4 construct: Western blot data for BET, CRBN and VHL protein levels; endogenous in cells; host or cells: HEK293 (ATCC)
Experimental: as §1, §2, §3

BRD3 [3] = target: T1, BRD3; experiment: as above; assay type: cell-based; conditions: 6 h, mean ± S.E.M. of three experiments, values marked b mean ± S.D. of two
Experimental: as §1, §2, §3

K562 cells = experiment: Cell viability assay (CellTiter-Glo); assay type: cell-based, human; conditions: Homo sapiens; WT K562, 5.12 pM to 10 uM, n = 3 (Table S4)
KBM7 cells = experiment: Cell viability assay (CellTiter-Glo); assay type: cell-based, human; conditions: Homo sapiens, KBM-7; WT KBM7, 5.12 pM to 10 uM, n = 3 (Table S4)
BRD2 [4] = target: T2, BRD2; experiment: Live cell kinetic HiBiT degradation assay, HiBiT-BRD2 HEK293 cells; assay type: cell-based; conditions: for DC50: HiBiT-BRD2 CRISPR knock-in HEK293 cells, live cell kinetic degradation, 24 h, read-out: Dmax 50 BRD2; for λmax BRD2 (degradation rate): HiBiT-BRD2 knock-in HEK293 cells
In short: as §4

[5] = HiBiT-BRD3 CRISPR knock-in HEK293 cells, 24 h
[6] = HiBiT-BRD3 knock-in HEK293 cells

Row | fold increase in CRBN degradation vs nonmethylated matched pair (CRBN; 27 vs 26, 24 vs 23, DC50, HEK293 Western blot) [fold] | DC50 (CRBN) [nM] | DC50 (BRD3 [1]; [5]) [nM] | λmax BRD3 (degradation rate) (BRD3 [1]; [6]) | DC50 (BRD3 [1]; [6]) [nM] | DC50 (BRD2 [2]) [nM] | DC50 (BRD4^Short) [nM] | DC50 (BRD4^Long) [nM] | DC50 (BRD3 [3]) [nM] | EC50 (K562 cells) [nM] | DC50 (BRD2 [4]) [nM] | λmax BRD2 (degradation rate) (BRD2 [4]) [h⁻¹] | fold decrease in CRBN degradation vs 26 (CRBN; DC50, HEK293 Western blot) [fold] | fold decrease in BRD4^Long degradation vs 26 (BRD4^Long; DC50, HEK293 Western blot) [fold] | SMILES | EC50 (KBM7 cells) [nM]
1 | ~2.6 | 75 ± 14 | < 0.43 | 3.31 h⁻¹ | 0.085 | 15 ± 2.1 | 2.1 ± 0.3 | 2.3 ± 0.4 | 1.6 ± 0.3 | 62.1 | 2 | 2.37 | – | – | Cc1ncsc1-c1ccc([C@H](C)NC(=O)[C@@H]2C[C@@H](O)CN2C(=O)[C@@H](NC(=O)COCC(C)(COCCOCCOCCNc2cc3c(cc2F)C(=O)N(C2CCC(=O)NC2=O)C3=O)COCCOCCOCCOC(=O)C[C@@H]2N=C(c3ccc(Cl)cc3)c3c(sc(C)c3C)-n3c(C)nnc32)C(C)(C)C)cc1 (mixture of isomers) [AB3067 (27), (17S)-11-((2-(2-(2-((2-(2,6-dioxopiperidin-3-yl)-6-fluoro-1,3-dioxoisoindolin-5-yl)amino)ethoxy)ethoxy)ethoxy)methyl)-17-((2S,4R)-4-hydroxy-2-(((S)-1-(4-(4-methylthiazol-5-yl)phenyl)ethyl)carbamoyl)pyrrolidine-1-carbonyl)-11,18,18-trimethyl-15-oxo-3,6,9,13-tetraoxa-16-azanonadecyl 2-((S)-4-(4-chlorophenyl)-2,3,9-trimethyl-6H-thieno[3,2-f][1,2,4]triazolo[4,3-a][1,4]diazepin-6-yl)acetate] | 6.9
2 | – | 900 ± 720 | 3 | 2.60 h⁻¹ and 2.6 h⁻¹ | – | 19 ± 7.2 | 4.4 ± 2.4 | 4 ± 2.1 | 6.4 ± 0.8 | 242 | 31 | 2.63 | 4.5 | 5.3 | Cc1ncsc1-c1ccc(CNC(=O)[C@@H]2C[C@@H](O)CN2C(=O)[C@@H](NC(=O)COCC(C)(COCCOCCNc2cc3c(cc2F)C(=O)N(C2CCC(=O)NC2=O)C3=O)COCCOCCOC(=O)C[C@@H]2N=C(c3ccc(Cl)cc3)c3c(sc(C)c3C)-n3c(C)nnc32)C(C)(C)C)cc1 (mixture of isomers) [AB3125 (30), (14S)-8-((2-(2-((2-(2,6-dioxopiperidin-3-yl)-6-fluoro-1,3-dioxoisoindolin-5-yl)amino)ethoxy)ethoxy)methyl)-14-((2S,4R)-4-hydroxy-2-((4-(4-methylthiazol-5-yl)benzyl)carbamoyl)pyrrolidine-1-carbonyl)-8,15,15-trimethyl-12-oxo-3,6,10-trioxa-13-azahexadecyl 2-((S)-4-(4-chlorophenyl)-2,3,9-trimethyl-6H-thieno[3,2-f][1,2,4]triazolo[4,3-a][1,4]diazepin-6-yl)acetate] | 34.1
3 | – | 150 ± 190 | 1.9 | 2.62 h⁻¹ | – | 33 ± 34 | 5.3 ± 5.5 | 5 ± 5.3 | 6.6 ± 0.3 | 80.5 | 18 | 2.35 | – | – | Cc1ncsc1-c1ccc(CNC(=O)[C@@H]2C[C@@H](O)CN2C(=O)[C@@H](NC(=O)COCC(C)(COCCOCCNc2cc3c(cc2F)C(=O)N(C2CCC(=O)NC2=O)C3=O)COCCOCCOCCOC(=O)C[C@@H]2N=C(c3ccc(Cl)cc3)c3c(sc(C)c3C)-n3c(C)nnc32)C(C)(C)C)cc1 (mixture of isomers) [AB3126 (29), (17S)-11-((2-(2-((2-(2,6-dioxopiperidin-3-yl)-6-fluoro-1,3-dioxoisoindolin-5-yl)amino)ethoxy)ethoxy)methyl)-17-((2S,4R)-4-hydroxy-2-((4-(4-methylthiazol-5-yl)benzyl)carbamoyl)pyrrolidine-1-carbonyl)-11,18,18-trimethyl-15-oxo-3,6,9,13-tetraoxa-16-azanonadecyl 2-((S)-4-(4-chlorophenyl)-2,3,9-trimethyl-6H-thieno[3,2-f][1,2,4]triazolo[4,3-a][1,4]diazepin-6-yl)acetate] | 7.3

From publication PMC11638965, “Leveraging Dual-Ligase Recruitment to Enhance Protein Degradation via a Heterotrivalent Proteolysis Targeting Chimera” (Journal of the American Chemical Society, 2024)
